Usually IC90 stands for the point of the concentration-response curve where the effect stands at 90%.

For 27 molecules, IC90 results are on record in patent US20230012368A1 (Hoffmann-La Roche Inc., priority 2018, published 2023).

Structures can show the parent of a compound that is named as a salt.

The test system of the first test is Acinetobacter baumannii ATCC 17978. Briefly: Antimicrobial susceptibility testing: 90% growth inhibitory concentration (IC90) determination. To be noted: 90% growth inhibitory concentration; Acinetobacter baumannii ATCC17978; Iso-Sensitest broth, OD 600 nm over 16h; read-out: ATCC17978 IC90. Type of test: cell-based. In a few lines:
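Compounds serially twofold diluted (e.g. 50 to 0.097 μM final) in Iso-Sensitest broth, inoculated at ~5×10^(5) CFU/ml, incubated at 35±2° C. OD600 read every 20 minutes over 16h. IC90 taken as concentration inhibiting 90% of growth during logarithmic phase.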
`COc1ccc(-c2cnc3c(Nc4ccc(C(=O)NCCC5CCN(C)CC5)c(C)c4)nccn23)cc1` [Example 195, 4-[[3-(4-methoxyphenyl)imidazo[1,2-a]pyrazin-8-yl]amino]-2-methyl-N-[2-(1-methylpiperidin-4-yl)ethyl]benzamide;hydrochlo-ride]: the 90% effect concentration (IC90) turned out to be 360 nM.

Staying with this test, now noted: Acinetobacter baumannii, ATCC17978, 16 h, 90% growth inhibitory concentration; Acinetobacter baumannii ATCC17978; Iso-Sensitest broth, OD 600 nm over 16h; read-out: ATCC17978 IC90.
Turning to `CCc1cc(Nc2nccn3c(-c4ccc(OCC#N)c(F)c4Cl)cnc23)ccc1C(=O)NCCNC(=O)[C@@H](N)CCCNC(=N)N` [Example 330, N-[2-[[(2S)-2-amino-5-carbamimidamidopentanoyl]amino]ethyl]-4-[[3-[2-chloro-4-(cyanomethoxy)-3-fluorophenyl]imidazo[1,2-a]pyrazin-8-yl]amino]-2-ethylbenzamide;formic acid], the IC90 came out at 110 nM.

Consider `Cc1cc(Nc2nccn3c(-c4ccc(OC(F)F)cc4)cnc23)ccc1C(=O)NC[C@@H](C)N` [Example 268, N-[(2R)-2-aminopropyl]-4-[[3-[4-(difluoromethoxy)phenyl]im-idazo[1,2-a]pyrazin-8-yl]amino]-2-methylbenzamide;hydrochlo-ride], for which the 90% effect concentration (IC90) came to 5600 nM. On the same count and under the same terms, as for `COc1ccc(-c2cnc3c(Nc4ccc(C(=O)NC[C@@H](O)[C@@H](O)[C@H](O)[C@H](O)CO)c(C)c4)nccn23)cc1F` [Example 288, 4-[[3-(3-fluoro-4-methoxyphenyl)imidazo[1,2-a]pyrazin-8-yl]amino]-2-methyl-N-[(2R,3R,4R,5R)-2,3,4,5,6-pentahydroxyhexyl]benzamide], the figure is 3000 nM; as for `COc1ccc(-c2cnc3c(Nc4ccc(C(=O)NCCN5CCN(C)CC5)c(C)c4)nccn23)cc1` [Example 49], 470 nM; as for `CCc1cc(Nc2nccn3c(-c4ccc(OC)c(F)c4F)cnc23)ccc1C(=O)NCCCCCCn1ccnc1` [Example 535, N-(6-(1H-imidazol-1-yl)hexyl)-4-((3-(2,3-difluoro-4-methoxyphenyl)imidazo[1,2-a]pyrazin-8-yl)amino)-2-ethylbenzamide], 85 nM. On to `COc1ccc(-c2cnc3c(Nc4ccc(C(=O)N(C)CC5CCNCC5)c(C)c4)nccn23)cc1F` [Example 210, 4-[[3-(3-fluoro-4-methoxyphenyl)imidazo[1,2-a]pyrazin-8-yl]amino]-N,2-dimethyl-N-(piperidin-4-ylmethyl)benzamide;hydrochlo-ride], for which the IC90 was determined as 630 nM. On the same count and under the same terms, under `CNC(=O)c1ccc(Nc2nccn3c(-c4ccc(OC(F)F)cc4)cnc23)cc1C(C)C` [Example 166, 4-[[3-[4-(difluoromethoxy)phenyl]imidazo[1,2-a]pyrazin-8-yl]amino]-2-isopropyl-N-methyl-benzamide] stands 980 nM. Same read-out and setting: as for `COc1ccc(-c2cnc3c(Nc4ccc(C(=O)NCCNC(=O)N5CCN[C@H](C(=O)O)C5)c(C)c4)nccn23)c(F)c1F` [Example 348, (2S)-4-[2-[[4-[[3-(2,3-difluoro-4-methoxyphenyl)imidazo[1,2-a]pyrazin-8-yl]amino]-2-methylbenzoyl]amino]ethyl-carbamoyl]piperazine-2-carboxylic acid;formic acid], the figure is 1100 nM; as for `CCc1cc(Nc2nccn3c(-c4ccc(Oc5ccncn5)c(F)c4F)cnc23)ccc1C(=O)NCCCNC(=O)CCCNCCCN` [Example 563, N-[3-[4-(3-aminopropylamino)butanoyl-amino]propyl]-4-[[3-(2,3-difluoro-4-pyrimidin-4-yloxy-phenyl)imidazo[1,2-a]pyrazin-8-yl]amino]-2-ethyl-benzamide; formic acid], 190 nM.

`Cc1cc(Nc2nccn3c(-c4ccc(OC(F)F)cc4)cnc23)ccc1C(=O)NCC(=O)N1CCOCC1` [Example 252, 4-[[3-[4-(difluoromethoxy)phenyl]im-idazo[1,2-a]pyrazin-8-yl]amino]-2-methyl-N-(2-morpholin-4-yl-2-oxoethyl)benzamide]: the IC90 is 2800 nM.

Regarding `CC[C@@]1(O)CN[C@H](C(=O)NCCNC(=O)c2ccc(Nc3nccn4c(-c5ccc(OCC#N)c(F)c5F)cnc34)cc2C)C1` [Example 366, (2S,4S)-N-[2-[[4-[[3-[4-(cyanomethoxy)-2,3-difluorophenyl]imidazo[1,2-a]pyrazin-8-yl]amino]-2-methylbenzoyl]amino]ethyl]-4-ethyl-4-hydroxypyrrolidine-2-carboxamide], the IC90 was found to be 100 nM. Consider `COc1ccc(-c2cnc3c(Nc4ccc(C(=O)N(C)C)cc4)nccn23)cc1Cl` [Example 180, 4-[[3-(3-chloro-4-methoxyphenyl)imidazo[1,2-a]pyrazin-8-yl]amino]-N,N-dimethylbenzamide;2,2,2-trifluoroacetic acid], for which the IC90 amounted to 730 nM. Turning to `COc1ccc(-c2cnc3c(Nc4ccc(C(=O)N(C)CCC5CCNCC5)c(C)c4)nccn23)cc1F` [Example 11, hydrochloride], the IC90 came out at 140 nM.

Regarding `CCc1cc(Nc2nccn3c(-c4ccc(OC(F)F)c(F)c4F)cnc23)ccc1C(=O)NC(C)(C)CCN` [Example 100, N-(4-amino-2-methylbutan-2-yl)-4-((3-(4-(difluoromethoxy)-2,3-difluorophenyl)imidazo [1,2-a]pyrazin-8-yl)amino)-2-ethylbenzamide hydrochloride], the concentration for an effect of 90% (IC90) was found to be 350 nM.

Turning to `Cc1cc(Nc2nccn3c(-c4ccc(OC(F)F)cc4)cnc23)ccc1C(=O)N(C)CC1(O)CCNCC1` [Example 260, 4-[[3-[4-(difluoromethoxy)phenyl]im-idazo[1,2-a]pyrazin-8-yl]amino]-N-[(4-hydroxypiperidin-4-yl)methyl]-N,2-dimethylbenzamide;hydrochlo-ride], the IC90 turned out to be 4300 nM.

For the molecule `CCc1cc(Nc2nccn3c(-c4ccc(OCC#CCO)c(F)c4F)cnc23)ccc1C(=O)NCCCN` [Example 419, N-(3-aminopropyl)-4-[[3-[2,3-difluoro-4-(4-hydroxybut-2-ynoxy)phenyl]imidazo[1,2-a]pyrazin-8-yl]amino]-2-ethyl-benzamide], the IC90 came out at 670 nM. Same read-out and setting: under `COc1ccc(-c2cnc3c(Nc4ccc(C(=O)NCCCN)c(C)c4F)nccn23)c(F)c1F` [Example 479, N-(3-aminopropyl)-4-((3-(2,3-difluoro-4-methoxyphenyl)imidazo[1,2-a]pyrazin-8-yl)amino)-3-fluoro-2-methylbenzamide] stands 490 nM; under `CCc1cc(Nc2nccn3c(-c4ccc(OC)c(F)c4F)cnc23)ccc1C(=O)NC[C@H](C)NC(=O)[C@@H](N)CCCNC(=N)N` [Example 123, N-[(2S)-2-[[(2S)-2-amino-5-guanidino-pentanoyl]amino]propyl]-4-[[3-(2,3-difluoro-4-methoxy-phenyl)imidazo[1,2-a]pyrazin-8-yl]amino]-2-ethyl-benzamide formate], 410 nM.

As for `CCc1cc(Nc2nccn3c(-c4ccc(Cl)cc4Cl)cnc23)ccc1C(=O)NCCNC(=O)[C@H](N)CCCNC(=N)N` [Example 351, N-[2-[[(2R)-2-amino-5-carbamimidamidopentanoyl]amino]ethyl]-4-[[3-(2,4-dichlorophenyl)imidazo[1,2-a]pyrazin-8-yl]amino]-2-ethylbenzamide;formic acid], the IC90 is 1300 nM.

With `CCc1cc(Nc2nccn3c(-c4ccc(OC)c(F)c4F)cnc23)ccc1C(=O)NCCNC(=O)[C@@H]1C[C@@H](O)CN1` [Example 370, (2S,4R)-N-[2-[[4-[[3-(2,3-difluoro-4-methoxyphenyl)imidazo[1,2-a]pyrazin-8-yl]amino]-2-ethylbenzoyl]amino]ethyl]-4-hydroxypyrrolidine-2-carboxamide], the IC90 came to 140 nM. The same measure, in the same setting: under `COc1ccc(-c2cnc3c(Nc4ccc(C(=O)NCC5CNCCO5)c(Cl)c4)nccn23)cc1F` (stereo not drawn) [Example 233, 2-chloro-4-[[3-(3-fluoro-4-methoxyphenyl)imidazo[1,2-a]pyrazin-8-yl]amino]-N-(morpholin-2-ylmethyl)benzamide; hydrochlo-ride] stands 1300 nM; under `CCc1cc(Nc2nccn3c(-c4ccc(Oc5ccncn5)c(F)c4F)cnc23)ccc1C(=O)NCCNC(=O)[C@H](N)CCCNC(=N)N` [Example 433, N-[2-[[(2R)-2-amino-5-guanidino-pentanoyl]amino]ethyl]-4-[[3-(2,3-difluoro-4-pyrimidin-4-yloxy-phenyl)imidazo[1,2-a]pyrazin-8-yl]amino]-2-ethyl-benzamide; formic acid], 460 nM; under `Cc1cc(Nc2nccn3c(-c4ccc(Cl)c(F)c4F)cnc23)ccc1C(=O)N(C)CCCN` [Example 228, N-(3-aminopropyl)-4-[[3-(4-chloro-2,3-difluorophenyl)imidazo[1,2-a]pyrazin-8-yl]amino]-N,2-dimethylbenzamide;hydrochlo-ride], 1200 nM. Regarding `CCc1cc(Nc2nccn3c(-c4ccc(OC)c(F)c4F)cnc23)ccc1C(=O)N[C@H](C)CNC(=O)[C@@H](N)CCCCN` [Example 465, N-[(1R)-2-[[(2S)-2,6-diaminohexanoyl]amino]-1-methyl-ethyl]-4-[[3-(2,3-difluoro-4-methoxy-phenyl)imidazo[1,2-a]pyrazin-8-yl]amino]-2-ethyl-benzamide], the IC90 worked out at 300 nM. `CN(CCN1CCNCC1)C(=O)c1ccc(Nc2nccn3c(-c4ccc(OC(F)F)cc4)cnc23)cc1Cl` [Example 203, 2-chloro-4-[[3-[4-(difluoromethoxy)phenyl]im-idazo[1,2-a]pyrazin-8-yl]amino]-N-methyl-N-(2-piperazin-1-ylethyl)benzamide; hydrochlo-ride]: the IC90 was 460 nM. Same read-out and setting: as for `CCc1cc(Nc2nccn3c(-c4ccc(OC(F)F)c(F)c4F)cnc23)ccc1C(=O)NCC1(CO)COC(=O)N1` (stereo not drawn) [Example 409, 4-((3-(4-(difluoromethoxy)-2,3-difluorophenyl)imidazo[1,2-a]pyrazin-8-yl)amino)-2-ethyl-N-((4-(hydroxymethyl)-2-oxooxazolidin-4-yl)methyl)benzamide], the figure is 450 nM.
